{
  "source": "patent US4296206A",
  "about": "“Irreversible anti-glucocorticoids” (United States of America, priority 1980, dated 1981)",
  "key": {"[1]": {"target": "T1, HTC cell glucocorticoid receptors (Rattus norvegicus, UniProt P06536)", "T1 construct": "crude receptors from a well characterized line of rat hepatoma tissue culture (HTC) cells; endogenous in cells; host or cells: HTC (rat hepatoma tissue culture) cells, crude cytosol", "T1 sequence (P06536 1-795)": "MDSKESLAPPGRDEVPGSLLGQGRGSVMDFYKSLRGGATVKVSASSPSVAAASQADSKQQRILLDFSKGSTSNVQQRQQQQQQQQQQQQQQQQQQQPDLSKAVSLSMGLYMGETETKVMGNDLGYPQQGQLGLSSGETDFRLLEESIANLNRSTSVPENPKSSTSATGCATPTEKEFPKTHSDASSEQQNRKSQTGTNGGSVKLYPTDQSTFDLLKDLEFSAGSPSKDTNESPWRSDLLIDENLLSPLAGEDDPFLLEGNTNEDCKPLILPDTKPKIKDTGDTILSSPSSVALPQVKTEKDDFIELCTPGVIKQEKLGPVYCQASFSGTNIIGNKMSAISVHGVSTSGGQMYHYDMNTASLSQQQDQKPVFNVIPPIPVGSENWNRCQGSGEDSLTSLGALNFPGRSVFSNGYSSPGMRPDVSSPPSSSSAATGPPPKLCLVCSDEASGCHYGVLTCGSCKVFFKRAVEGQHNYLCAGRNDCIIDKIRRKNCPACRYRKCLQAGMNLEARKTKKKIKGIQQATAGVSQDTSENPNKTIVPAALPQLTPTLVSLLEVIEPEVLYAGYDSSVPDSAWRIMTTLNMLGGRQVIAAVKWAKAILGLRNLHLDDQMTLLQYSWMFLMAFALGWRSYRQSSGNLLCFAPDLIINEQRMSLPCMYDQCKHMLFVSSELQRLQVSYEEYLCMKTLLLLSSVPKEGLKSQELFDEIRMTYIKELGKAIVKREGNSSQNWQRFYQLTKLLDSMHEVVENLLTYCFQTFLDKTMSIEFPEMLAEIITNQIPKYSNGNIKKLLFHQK", "experiment": "cell-free competition assay with 3H-dexamethasone, crude HTC cell receptors", "type": "binding", "text": "(§1) Ir (nujol) ~3400. 1733, 1659, 1359, 1170 cm^-1. […] 59.98; H. 7.32; S. 7.28.\nIn general, the introduction of bulky substituents on the C21 of glucocorticoids results in derivatives with a reduced affinity for glucocorticoid receptors as described, for example, in Failla, D. et al., Proc. Nat. Acad. Sci. USA, 72, 3849-3852 (1975). […] The data for FIG. 1 was obtained from a determination of relative affinities of cortisol and cortisol-21-mesylate for HTC cell glucocorticoid receptors in a cell-free competition assay. Duplicate crude HTC cell receptor solutions were incubated for 3 hrs at 0° with 5.6×10^-9 M ^3 H-dexamethasone and varying concentrations of cortisol, or CM (final protein concentration=5.1 mg/ml). A 500 fold excess of ^1 H-dexamethasone was used to determine the level of non-specific binding of ^3 H-steroid. The average specifically bound ^3 H-dexamethasone in the presence of varying concentrations of cortisol or CM was plotted as % of the uncompeted control (variation less than ±4%)."}, "[2]": {"test_system": "tyrosine aminotransferase (TAT) induction in HTC cells", "experiment": "induction of tyrosine aminotransferase (TAT) in whole HTC cells", "type": "cell-based, rat", "text": "as §1\nHTC cells display several biological responses to glucocorticoids. Tyrosine aminotransferase (TAT) is one specific, glucocorticoid inducible enzyme in HTC cells; and previous extensive studies argue that TAT induction in HTC cells is a primary response to glucocorticoids that is initiated by the binding of steroid to a specific, cytoplasmic receptor. […] The basal level of TAT activity is shown by the dashed line."}, "[3]": {"target": "T2, dexamethasone induction of TAT in HTC cells (Rattus norvegicus, UniProt P06536)", "T2 construct": "endogenous in cells; host or cells: HTC (rat hepatoma tissue culture) cells, whole, monolayer or spinner cultures", "T2 sequence (P06536 1-795)": "T1 sequence (P06536 1-795)", "experiment": "inhibition of dexamethasone induction of TAT activity in whole HTC cells", "type": "cell-based", "protocol": "as §1\nAlternatively, CM could be a anti-inducer, or inhibitor of glucocorticoid action. […] After the usual incubation (18 hrs/37°) and work-up, the specific enzyme activity of TAT was plotted against the concentration of that steroid present in varying amounts. The range of each duplicate determination is shown by error bars when it exceeds the area of the data points. The basal level of TAT activity is indicated by the dashed line."}, "[4]": {"target": "T2, dexamethasone induction of TAT in HTC cells", "experiment": "TAT induction after pre-treatment of HTC cells and washing (reversibility)", "type": "cell-based", "conditions": "for reversal of pre-incubation effect on dexamethasone induction of TAT by washing the cells: pre-incubation overnight, wash, then 2×10^-8 M dexamethasone", "protocol": "One approach to establishing CM as an irreversible inhibitor of TAT induction by glucocorticoids is to determine whether the effects of CM can be reversed by washing the cells.\nAfter incubation at 37°/15 1/2 hrs, ~6×10^7 cells were centrifuged at 600 xg/10 min/22°and resuspended in 200 ml of \"conditioned\" medium that had also been \"incubated\" at 37°/15 1/2 hrs. After a second centrifugation, each cell pellet was again resuspended in 210 ml of \"conditioned\" medium. […] The cells in Wheaton bottles were incubated in a rotating water bath (37°/175 rpm) with 3 ml aliquots being removed at various time points for protein and TAT determinations in the usual manner."}, "[5]": {"target": "T1, HTC cell glucocorticoid receptors", "experiment": "cell-free exchange assay (3H-dexamethasone exchange binding to pre-formed complexes)", "conditions": "for effect of pre-incubation of steroid-free receptors on subsequent exchange-binding of 3H-dexamethasone: cell-free", "protocol": "as §1\nTo examine this possibility in more detail, a determination was made as to whether the cell-free binding of CM to HTC cell receptors is reversible. Using the previously described exchange assay, crude HTC cell receptors were incubated with enough cortisol, or CM, to occupy ~75% of the receptor based on data of FIG. 1. After ~3 hrs, activated charcoal was added to remove free steroid and to inactivate steroid-free receptors. An excess of ^3 H-dexamethasone was then added to exchange-bind to the previously formed receptor-steroid complexes. […] Thus CM is an irreversible inhibitor of one aspect of glucocorticoid action in broken cells, i.e., the ability of glucocorticoids to exchange-bind to receptor-glucocorticoid complexes.\nFIG. 5 is based on data obtained in studying inhibition of ^3 H-dexamethasone exchange binding to pre-formed complexes by cortisol-21-mesylate. Using the previously described exchange assay, crude HTC cell receptors were pre-incubated with 6×10^-8 M cortisol or 1.35×10^-6 M CM for 2.8 hrs at 0° (final protein concentration=7.0 mg/ml). After addition of activated charcoal to remove free steroid, and to inactivate steroid-free receptors, followed by centrifugation to pellet the activated charcoal, the pre-incubated cytosols were adjusted to 1.9×10^-8 M ^3 H-dexamethasone ±1.1×10^-5 M ^1 H-dexamethasone. After subsequent incubation for the indicated time, activated charcoal was again added to determine the amount of specifically bound ^3 H-dexamethasone (=total-non-specific binding) that was formed by exchange binding in cortisol or CM pre-incubated cytosols. For comparison, the amount of non-specific binding in cortisol or CM pre-incubated receptor solutions is shown in dashed lines."}, "rats": {"test_system": "rats", "experiment": "experiment with rats, daily intraperitoneal injections", "type": "in vivo, rat", "text": "In the experiments and uses of CM and DM described above, the toxicity of either compound was negligible. […] In order to be more useful in animals and people, two approaches can be used to reduce this toxicity. […] Second, alternative routes of administration (e.g., oral, intravenous, intramuscular and subcutaneous) might be less toxic."}, "in vitro": {"experiment": "in vitro", "conditions": "rat, htc cells"}, "[6]": {"experiment": "cell toxicity in HTC cells (protein content, cell number, trypan blue exclusion)", "conditions": "rat"}},
  "note": "Where “and” joins values, the source holds several entries; their conditions need not be identical. Identical values can stand only once. Entries after “also recorded” stand apart in the source; their conditions may differ.",
  "data": [
    {"smiles": "C[C@]12CCC(=O)C=C1CC[C@@H]1[C@@H]2[C@@H](O)C[C@@]2(C)[C@H]1CC[C@]2(O)C(=O)COS(C)(=O)=O", "note": "[CM, 4-pregnene-11β, 17α, 21-triol-3, 20-dione-21-methanesulfonate]", "values": [
      {"measurement": "cell-free affinity for the glucocorticoid receptors of HTC cells", "setting": "[1]", "value": "low but significant"},
      {"measurement": "affinity for glucocorticoid receptors, fold lower than that of the parent steroid cortisol", "setting": "[1]; 3 hrs at 0°, 5.6×10^-9 M 3H-dexamethasone, crude HTC cell receptors", "value": 15, "unit": "fold"},
      {"measurement": "apparent Kd with HTC cell glucocorticoid receptors, times greater than the Kd of cortisol", "setting": "[1]; CM", "value": 15, "unit": "times"},
      {"measurement": "induction of TAT in whole HTC cells", "setting": "[2]; 18 hrs at 37°", "value": "completely inactive; also recorded: does not induce TAT"},
      {"measurement": "Ki", "setting": "[3]", "value": "~0.1", "unit": "µM"},
      {"measurement": "inhibition of TAT induction by dexamethasone in whole cells", "setting": "[3]", "value": "potent inhibitors"},
      {"measurement": "TAT induction by 2×10^-8 M dexamethasone in the presence of the compound", "setting": "[3]; 1.3×10^-6 M CM", "value": "slight but significant increase in TAT"},
      {"measurement": "TAT induction by 10^-7 M cortisol in the presence of the compound", "setting": "[3]; 1.3×10^-6 M CM", "value": "unable to induce TAT"},
      {"measurement": "duration of activity as anti-glucocorticoid in HTC cell cultures", "setting": "[3]; 37°, tissue culture", "value": "~ 18 hrs and 17-18 hrs"},
      {"measurement": "time after which no longer completely inhibitory (some inducibility of TAT returns)", "setting": "[3]; HTC cells", "value": "about 24 hr"},
      {"measurement": "magnitude of TAT induction 24 hrs after the wash procedure in pre-treated, post-dexamethasone treated cells", "setting": "[4]; 24 hrs after wash", "value": "significantly reduced; also recorded: only partial induction"},
      {"measurement": "appearance of TAT in pre-treated cells, delay after TAT induction in EtOH or progesterone pre-treated cells", "setting": "[4]; average of three experiments", "value": 2.7, "unit": "h"},
      {"measurement": "time without TAT induction after the wash procedure in pre-treated, post-dexamethasone treated cells", "setting": "[4]; pre-CM, post-dexamethasone", "value": "~ 8 hrs and 6-8 hrs"},
      {"measurement": "reversal of pre-incubation effect on dexamethasone induction of TAT by washing the cells", "setting": "[4]", "value": "can not reverse; also recorded: cannot be reversed by washing the cells"},
      {"measurement": "effect of pre-incubation of steroid-free receptors on subsequent exchange-binding of 3H-dexamethasone", "setting": "[5]", "value": "inhibits"},
      {"measurement": "inhibition at 1.35 µM", "setting": "[5]; pre-incubation 1.35×10^-6 M CM, ~3 hrs at 0°, read-out: reduction of the ability of receptors to exchange-bind 3H-dexamethasone", "value": "~75", "unit": "%"},
      {"measurement": "anti-glucocorticoid activity in rats", "setting": "rats; daily intraperitoneal injections of 10-50 mg per kilogram", "value": "some anti-glucocorticoid activity"},
      {"measurement": "toxicity in rats at higher doses", "setting": "rats; ≥100 mg/kilogram, intraperitoneal", "value": "peritonitis and death"},
      {"measurement": "effect on cell number", "setting": "HTC cells", "value": "no effect"},
      {"measurement": "effect on total cell protein", "setting": "HTC cells", "value": "~1% increase to 6% decrease"},
      {"measurement": "cytotoxicity", "setting": "in vitro", "value": 20, "unit": "%"},
      {"measurement": "cytotoxicity at 13 µM", "setting": "[6]", "value": 12, "unit": "%"},
      {"measurement": "viability", "setting": "[6]", "value": "93 to 94", "unit": "%"}
    ]},
    {"smiles": "C[C@@H]1C[C@H]2[C@@H]3CCC4=CC(=O)C=C[C@]4(C)[C@@]3(F)[C@@H](O)C[C@]2(C)[C@@]1(O)C(=O)COS(C)(=O)=O", "note": "[DM, 16α-methyl-9α-fluoro-1,4-pregnadiene-11β, 17α, 21-triol-3, 20-dione-21-methane-sulfonate]", "values": [
      {"measurement": "cell-free affinity for the glucocorticoid receptors of HTC cells", "setting": "[1]", "value": "low but significant"},
      {"measurement": "affinity for cell free receptors, fold higher than CM", "setting": "[1]; cell free receptors", "value": "approximately 10 fold"},
      {"measurement": "Emax", "setting": "[2]; Rattus norvegicus, whole HTC cells, read-out: induction of TAT in HTC cells, % of full induction", "value": "~25", "unit": "%"},
      {"measurement": "inhibition of TAT induction by dexamethasone in whole cells", "setting": "[3]", "value": "potent inhibitors"},
      {"measurement": "reversal of pre-incubation effect on dexamethasone induction of TAT by washing the cells", "setting": "[4]", "value": "cannot be reversed by washing the cells"},
      {"measurement": "effect of pre-incubation of steroid-free receptors on subsequent exchange-binding of 3H-dexamethasone", "setting": "[5]", "value": "inhibits"}
    ]}
  ]
}
